Results as given in patent US20260001928A1 (CORTERIA PHARMACEUTICALS, priority 2022, published 2026).
*1 amine or outer side, *2 acyl side, *3 side chain or, on linkers, in order; H or OH if unused. Where a SMILES comes first, the peptide text is derived from it. Side-chain parts run from the residue outwards. [ ]: non-standard residue; d: D form. The star is where a group is joined. C16 diacid = O=C(O)CCCCCCCCCCCCCCC(=O)*; γGlu = O=C(O)[C@H](CCC(=O)[*:2])N[*:1]; αMeL = CC(C)C[C@](C)(N)C(=O)O; Aib = CC(C)(N)C(=O)O

Legend:
CFR1R receptor = molecular target: T1, CFR1R receptor (Homo sapiens, UniProt P34998); assay: Activity at anti-target CFR1R receptor, cAMP assay in CRF1R-overexpression CHO-K1 cells; type: cell-based; conditions: 100% = Sauvagine at 100 nM; for EC50: cAMP
T1 construct: host or cells: CHO-K1 (clone 2)
T1 sequence (P34998 24-415): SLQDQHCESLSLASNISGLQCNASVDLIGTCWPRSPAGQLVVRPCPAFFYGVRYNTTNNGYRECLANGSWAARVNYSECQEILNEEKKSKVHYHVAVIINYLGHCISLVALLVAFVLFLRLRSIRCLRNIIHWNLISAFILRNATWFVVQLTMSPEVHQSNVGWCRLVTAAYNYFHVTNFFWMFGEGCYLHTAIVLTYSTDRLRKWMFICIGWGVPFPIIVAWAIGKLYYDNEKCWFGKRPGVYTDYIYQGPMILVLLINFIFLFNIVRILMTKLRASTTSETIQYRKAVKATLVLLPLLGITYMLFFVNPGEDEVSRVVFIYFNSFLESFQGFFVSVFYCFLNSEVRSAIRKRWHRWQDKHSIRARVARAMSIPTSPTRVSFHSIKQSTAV
Procedure, shortened: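 Clone 2 cells were cultured in F12 (Hams)/10% FBS/400 μg/ml G418 at 37° C./5% CO2, frozen in medium with 10% DMSO, and thawed vials used. The protocol followed the TeloHAEC procedure, with 4000 cells/well final and Sauvagine at 100 nM defining 100% activation.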

[1] = Chemical stability in buffer (pH 7.4 / pH 4.5), % purity loss; type: physicochemical; conditions: 40° C. vs 5° C., 14 or 28 days; for Buffer stability pH 7.4 % purity loss: 100 mM phosphate buffer pH 7.4
Procedure, shortened: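 Compounds dissolved at 10 mg/mL target in 100 mM phosphate (pH 7.4) or 100 mM acetate (pH 4.5) buffer for 1 h at room temperature, then centrifuged. Diluted supernatant stored at 5 °C or 40 °C for 14 or 28 days; % purity loss by LC-UV.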

Sprague Dawley rats = assay: Effect on systolic blood pressure, telemetry in Sprague Dawley rats; type: in vivo, rat; conditions: 0.1 mg/kg SC; for Systolic blood pressure (Mean) % change from baseline, 8 h / Systolic blood pressure (Mean) % change from baseline, 12 h / Systolic blood pressure (Mean) % change from baseline, 24 h: n=2; for Duration of action: last time point with an effect on BP still observed
Procedure, shortened: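 Sprague Dawley rats with abdominal-aorta telemetry catheters, recovered ≥10 days, received 0.1 mg/kg SC of compound or vehicle. Systolic pressure recorded 1 h pre-dose as baseline, then continuously up to 48 hours, expressed as % change from baseline; duration of action is last time point with a BP effect (n=2).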

human CRF2a receptor = molecular target: T2, human CRF2a receptor (Homo sapiens, UniProt Q13324); assay: Activity at human CRF2a receptor, cAMP functional assay in TeloHEAC cells; type: cell-based; conditions: TeloHEAC cells stably expressing human CRF2a receptor, relative to urocortin 2 (100 nM = 100%)
T2 construct: expressed in transfected cells; host or cells: TeloHEAC cells
T2 sequence (Q13324 1-411): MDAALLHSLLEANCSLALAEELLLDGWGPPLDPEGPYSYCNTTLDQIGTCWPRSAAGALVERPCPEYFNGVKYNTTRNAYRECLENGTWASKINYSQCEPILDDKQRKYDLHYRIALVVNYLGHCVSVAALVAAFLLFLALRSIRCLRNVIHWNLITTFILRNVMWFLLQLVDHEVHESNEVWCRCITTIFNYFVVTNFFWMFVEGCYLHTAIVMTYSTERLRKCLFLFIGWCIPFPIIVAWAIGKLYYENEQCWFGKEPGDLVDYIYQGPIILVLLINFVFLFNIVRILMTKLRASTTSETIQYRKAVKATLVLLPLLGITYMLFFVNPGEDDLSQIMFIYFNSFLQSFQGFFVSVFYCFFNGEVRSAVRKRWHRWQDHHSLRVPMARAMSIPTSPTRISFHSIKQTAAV
Procedure, shortened: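 cAMP accumulation was measured by HTRF 665/620 nm ratio after 30 min at 37° C compound exposure (16 twofold dilutions) of CRF2a-expressing TeloHEAC cells, 10000/well, in HEPES-buffered HBSS plus IBMX. Activity was normalised to urocortin 2 at 100 nM (100%), and EC50 was the concentration giving half-maximal activation.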

Compound	Emax (% I) (CFR1R receptor)	EC50 (CFR1R receptor) [nM]	Buffer stability pH 7.4 % purity loss [1]	Systolic blood pressure (Mean) % change from baseline, 8 h (Sprague Dawley rats) [%]	Systolic blood pressure (Mean) % change from baseline, 12 h (Sprague Dawley rats) [%]	Systolic blood pressure (Mean) % change from baseline, 24 h (Sprague Dawley rats) [%]	Duration of action (Sprague Dawley rats) [h]	EC50 (human CRF2a receptor) [nM]	Buffer stability pH 4.5 % purity loss ([1]; 100 mM acetate buffer pH 4.5) [%]
CC[C@H](C)[C@H](NC(C)=O)C(=O)N[C@H](C(=O)N[C@@H](CC(C)C)C(=O)N[C@@H](CO)C(=O)N[C@@H](CC(C)C)C(=O)N[C@@H](CC(=O)O)C(=O)N[C@H](C(=O)N1CCC[C@H]1C(=O)N[C@H](C(=O)N[C@@H](CCCCN)C(=O)N[C@@](C)(CC(C)C)C(=O)N[C@@H](CCCCNC(=O)CC[C@H](NC(=O)CCCCCCCCCCCCCCC(=O)O)C(=O)O)C(=O)N[C@@H](CCCCN)C(=O)N[C@H](C(=O)N[C@@H](CC(C)C)C(=O)N[C@@H](CC(C)C)C(=O)N[C@@H](CCC(=O)O)C(=O)N[C@@H](CCC(N)=O)C(=O)N[C@@H](CCC(=O)O)C(=O)N[C@@H](CCCCN)C(=O)N[C@@H](CCC(N)=O)C(=O)N[C@@H](CCCCN)C(=O)N[C@@H](CCCCN)C(=O)N[C@@H](CCC(N)=O)C(=O)N[C@@H](CCCNC(=N)N)C(=O)N[C@@H](CCC(=O)O)C(=O)N[C@@H](CCC(N)=O)C(=O)N[C@@H](C)C(=O)N[C@@H](CCC(=O)O)C(=O)N[C@H](C(=O)N[C@@H](CC(N)=O)C(=O)NC(C)(C)C(=O)N[C@@H](CCC(N)=O)C(=O)N[C@H](C(=O)N[C@@H](CC(C)C)C(=O)N[C@@H](C)C(=O)N[C@@H](CCC(N)=O)C(=O)N[C@H](C(N)=O)C(C)C)[C@@H](C)CC)[C@@H](C)O)[C@@H](C)CC)[C@@H](C)CC)C(C)C)C(C)C [compound 43] (Ac-IVLSLDVPIK[αMeL]K([γGlu-C16 diacid])KILLEQEKQKKQREQAETN[Aib]QILAQV-NH2)	1	> 250	0/nd ^ %	−18	−1	13	12	0.3	
CC[C@H](C)[C@H](NC(C)=O)C(=O)N[C@H](C(=O)N[C@@H](CC(C)C)C(=O)N[C@@H](CO)C(=O)N[C@@H](CC(C)C)C(=O)N[C@@H](CC(=O)O)C(=O)N[C@@H](C(=O)N1CCC[C@H]1C(=O)N[C@H](C(=O)N[C@@H](CCCCN)C(=O)N[C@@H](CC(C)C)C(=O)N[C@@H](CCCCNC(=O)CC[C@H](NC(=O)CCCCCCCCCCCCCCC(=O)O)C(=O)O)C(=O)N[C@@H](CCCCN)C(=O)N[C@H](C(=O)N[C@@H](CC(C)C)C(=O)N[C@@H](CC(C)C)C(=O)N[C@@H](CCC(=O)O)C(=O)N[C@@H](CCC(N)=O)C(=O)N[C@@H](CCC(=O)O)C(=O)N[C@@H](CCCCN)C(=O)N[C@@H](CCC(N)=O)C(=O)N[C@@H](CCCCN)C(=O)N[C@@H](CCCCN)C(=O)N[C@@H](CCC(N)=O)C(=O)N[C@@H](CCCNC(=N)N)C(=O)N[C@@H](CCC(=O)O)C(=O)N[C@@H](CCC(N)=O)C(=O)N[C@@H](C)C(=O)N[C@@H](CCC(=O)O)C(=O)N[C@H](C(=O)N[C@@H](CC(N)=O)C(=O)N[C@@H](C)C(=O)N[C@@H](CCC(N)=O)C(=O)N[C@H](C(=O)N[C@@H](CC(C)C)C(=O)N[C@@H](C)C(=O)N[C@@H](CCC(N)=O)C(=O)N[C@H](C(N)=O)C(C)C)[C@@H](C)CC)[C@@H](C)O)[C@@H](C)CC)[C@@H](C)CC)C(C)C)C(C)C [compound 47] (Ac-IVLSLD[dV]PIKLK([γGlu-C16 diacid])KILLEQEKQKKQREQAETNAQILAQV-NH2)	10	> 250	9.0%	−14	−6	2	23	0.09	0
